Laboratory results: US11497212B2, “Substituted thiophenyl uracils, salts thereof and the use thereof as herbicidal agents” (Syngenta Crop Protection AG, priority 2017, dated 2022)

What was measured:
Type in all cases: in vivo
Zea mays = test: Crop compatibility pre-emergence (greenhouse pot trial); conditions: effect vs untreated controls
Procedure, shortened: (§1)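 After soil-surface application of each compound to freshly sown pots (aqueous spray, 600 L/ha, 0.5% additive), plants grew under greenhouse conditions. Around 3 weeks later, injury was estimated visually on a 0–100% scale against controls.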

Veronica persica [1] = test: Herbicidal action post-emergence (greenhouse pot trial); conditions: application rate 80 g/ha
Procedure, shortened: (§2)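 Visual efficacy score after ~3 wk in greenhouse vs untreated control; 100% = plants dead, 0% = like control. Spray: aqueous suspension/emulsion of WP or EC, 0.5% additive, 600 L/ha water, ≤80 g/ha. Plants in sandy loam pots, treated at one-leaf stage, 2–3 wk post-sowing.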

Pharbitis purpurea [2] = test: as above; conditions: application rate 80 g/ha
Procedure, shortened: as §2

Digitaria sanguinalis [3] = test: as above; conditions: application rate 80 g/ha
Procedure, shortened: as §2

Polygonum convolvulus = test: as above; conditions: application rate 80 g/ha, scored visually after about 3 weeks vs untreated controls
Procedure, shortened: as §2

Abutilon theophrasti [4] = test: as above; conditions: application rate 80 g/ha, scored visually after about 3 weeks vs untreated controls
Procedure, shortened: as §2

Viola tricolor [5] = test: as above; conditions: application rate 80 g/ha
Procedure, shortened: as §2

Setaria viridis [6] = test: as above; conditions: application rate 80 g/ha, scored visually after about 3 weeks vs untreated controls
Procedure, shortened: as §2

Echinochloa crus-galli [7] = test: as above; conditions: application rate 80 g/ha, scored visually after about 3 weeks vs untreated controls
Procedure, shortened: as §2

Matricaria inodora [8] = test: as above; conditions: application rate 80 g/ha, scored visually after about 3 weeks vs untreated controls
Procedure, shortened: as §2

Lolium rigidum [9] = test: as above; conditions: application rate 80 g/ha, scored visually after about 3 weeks vs untreated controls
Procedure, shortened: as §2

Stellaria media [10] = test: as above; conditions: application rate 80 g/ha, scored visually after about 3 weeks vs untreated controls
Procedure, shortened: as §2

Amaranthus retroflexus [11] = test: as above; conditions: application rate 80 g/ha, scored visually after about 3 weeks vs untreated controls
Procedure, shortened: as §2

Alopecurus myosuroides [12] = test: as above; conditions: application rate 80 g/ha, scored visually after about 3 weeks vs untreated controls
Procedure, shortened: as §2

Triticum aestivum = test: Crop compatibility post-emergence (greenhouse pot trial)
Procedure, shortened: (§3)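 Visual % rating about 3 weeks post-treatment against untreated plants (100% dead, 0% unaffected). Post-emergence spray of aqueous WP/EC preparations with 0.5% additive at 600 L/ha water, applied at one-leaf stage to greenhouse pot-grown crops in sandy loam.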

Veronica persica [13] = test: Herbicidal action pre-emergence (greenhouse pot trial); conditions: application rate 320 g/ha
Procedure, shortened: (§4)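 Efficacy scored visually as percent of untreated control (0% = like control, 100% = dead) roughly 3 weeks after treatment. Compounds, as WP or EC plus 0.5% additive in 600 L/ha water, were applied at up to 320 g/ha to soil surface covering freshly sown seeds.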

Pharbitis purpurea [14] = test: as above; conditions: application rate 320 g/ha
Procedure, shortened: as §4

Digitaria sanguinalis [15] = test: as above; conditions: application rate 80 g/ha
Procedure, shortened: as §4

Abutilon theophrasti [16] = test: as above; conditions: application rate 320 g/ha, scored after about 3 weeks
Procedure, shortened: as §4

Viola tricolor [17] = test: as above; conditions: application rate 320 g/ha, scored after about 3 weeks
Procedure, shortened: as §4

Setaria viridis [18] = test: as above; conditions: application rate 320 g/ha, scored after about 3 weeks
Procedure, shortened: as §4

Echinochloa crus-galli [19] = test: as above; conditions: application rate 320 g/ha, scored after about 3 weeks
Procedure, shortened: as §4

Matricaria inodora [20] = test: as above; conditions: application rate 320 g/ha, scored after about 3 weeks
Procedure, shortened: as §4

Avena fatua = test: as above; conditions: application rate 320 g/ha
Procedure, shortened: as §4

Lolium rigidum [21] = test: as above; conditions: application rate 320 g/ha
Procedure, shortened: as §4

Stellaria media [22] = test: as above; conditions: application rate 320 g/ha, scored after about 3 weeks
Procedure, shortened: as §4

Amaranthus retroflexus [23] = test: as above; conditions: application rate 320 g/ha, scored after about 3 weeks
Procedure, shortened: as §4

Alopecurus myosuroides [24] = test: as above; conditions: application rate 320 g/ha, scored after about 3 weeks
Procedure, shortened: as §4

Glycine max = test: Crop compatibility pre-emergence (greenhouse pot trial); conditions: effect vs untreated controls
Procedure, shortened: as §1

Hordeum murinum [25] = test: Herbicidal action post-emergence (greenhouse pot trial); conditions: application rate 80 g/ha, scored visually after about 3 weeks vs untreated controls
Procedure, shortened: as §2

Oryza sativa = test: Crop compatibility post-emergence (greenhouse pot trial)
Procedure, shortened: as §3

Hordeum murinum [26] = test: Herbicidal action pre-emergence (greenhouse pot trial); conditions: application rate 320 g/ha
Procedure, shortened: as §4

Row | SMILES | Veronica persica (Efficacy in %) (Veronica persica [1]) [%] | Pharbitis purpurea (Efficacy in %) (Pharbitis purpurea [2]) [%] | Digitaria sanguinalis (Efficacy in %) (Digitaria sanguinalis [3]) [%] | Polygonum convolvulus (Efficacy in %) (Polygonum convolvulus) [%] | Abutilon theophrasti (Efficacy in %) (Abutilon theophrasti [4]) [%] | Viola tricolor (Efficacy in %) (Viola tricolor [5]) [%] | Setaria viridis (Efficacy in %) (Setaria viridis [6]) [%] | Echinochloa crus-galli (Efficacy in %) (Echinochloa crus-galli [7]) [%] | Matricaria inodora (Efficacy in %) (Matricaria inodora [8]) [%] | Lolium rigidum (Efficacy in %) (Lolium rigidum [9]) [%] | Stellaria media (Efficacy in %) (Stellaria media [10]) [%] | Amaranthus retroflexus (Efficacy in %) (Amaranthus retroflexus [11]) [%] | Alopecurus myosuroides (Efficacy in %) (Alopecurus myosuroides [12]) [%] | Veronica persica (Efficacy in %) (Veronica persica [13]) [%] | Pharbitis purpurea (Efficacy in %) (Pharbitis purpurea [14]) [%] | Digitaria sanguinalis (Efficacy in %) (Digitaria sanguinalis [15]) [%] | Abutilon theophrasti (Efficacy in %) (Abutilon theophrasti [16]) [%] | Viola tricolor (Efficacy in %) (Viola tricolor [17]) [%] | Setaria viridis (Efficacy in %) (Setaria viridis [18]) [%] | Echinochloa crus-galli (Efficacy in %) (Echinochloa crus-galli [19]) [%] | further results
1 | CCOCCOC(=O)C(C)Sc1cc(-n2c(=O)cc(C(F)(F)F)n(C)c2=O)c(F)cc1Cl (stereo not shown) [I.1-2] | 100 | 100 | 100 | 100 | 100 | 100 | 100 | 100 | 100 | 100 | 100 | 100 | 90 | 100 | 100 | 100 | 100 | 100 | 100 | 100 | Zea mays (Efficacy in %) (Zea mays; application rate 20 g/ha): 0%; Triticum aestivum (Efficacy in %) (Triticum aestivum; application rate 5 g/ha): 20%; Matricaria inodora (Efficacy in %) (Matricaria inodora [20]): 100%; Avena fatua (Efficacy in %) (Avena fatua): 90%; Lolium rigidum (Efficacy in %) (Lolium rigidum [21]): 90%; Stellaria media (Efficacy in %) (Stellaria media [22]): 100%; Amaranthus retroflexus (Efficacy in %) (Amaranthus retroflexus [23]): 100%; Alopecurus myosuroides (Efficacy in %) (Alopecurus myosuroides [24]): 80%
2 | COCCCOC(=O)C(C)Sc1cc(-n2c(=O)cc(C(F)(F)F)n(C)c2=O)c(F)cc1Cl (stereo not shown) [I.1-26] | 100 | 100 | 100 | 100 | 100 | 100 | 100 | 100 | 100 | 90 | 100 | 100 | 80 | 100 | 100 | 100 | 100 | 100 | 100 | 100 | Glycine max (Efficacy in %) (Glycine max; application rate 20 g/ha): 0%; Zea mays (Efficacy in %) (Zea mays; application rate 80 g/ha): 10%; Hordeum murinum (Efficacy in %) (Hordeum murinum [25]): 90%; Oryza sativa (Efficacy in %) (Oryza sativa; application rate 5 g/ha): 10%; Triticum aestivum (Efficacy in %) (Triticum aestivum; application rate 5 g/ha): 20%; Hordeum murinum (Efficacy in %) (Hordeum murinum [26]): 100%; Matricaria inodora (Efficacy in %) (Matricaria inodora [20]): 100%; Avena fatua (Efficacy in %) (Avena fatua): 80%; Lolium rigidum (Efficacy in %) (Lolium rigidum [21]): 90%; Stellaria media (Efficacy in %) (Stellaria media [22]): 100%; Amaranthus retroflexus (Efficacy in %) (Amaranthus retroflexus [23]): 100%
3 | Cn1c(C(F)(F)F)cc(=O)n(-c2cc(SCC(C)(C)C(=O)OCC3CCCO3)c(Cl)cc2F)c1=O (stereo not shown) [I.48-71] | 100 | 100 | 100 | 100 | 100 | 100 | 100 | 100 | 100 | 80 | 100 | 100 | 90 | 100 | 100 | 100 | 100 | 100 | 100 | 100 | Glycine max (Efficacy in %) (Glycine max; application rate 20 g/ha): 0%; Zea mays (Efficacy in %) (Zea mays; application rate 320 g/ha): 20%; Hordeum murinum (Efficacy in %) (Hordeum murinum [25]): 80%; Oryza sativa (Efficacy in %) (Oryza sativa; application rate 20 g/ha): 20%; Triticum aestivum (Efficacy in %) (Triticum aestivum; application rate 20 g/ha): 20%; Matricaria inodora (Efficacy in %) (Matricaria inodora [20]): 100%; Avena fatua (Efficacy in %) (Avena fatua): 80%; Lolium rigidum (Efficacy in %) (Lolium rigidum [21]): 90%; Stellaria media (Efficacy in %) (Stellaria media [22]): 100%; Amaranthus retroflexus (Efficacy in %) (Amaranthus retroflexus [23]): 100%; Alopecurus myosuroides (Efficacy in %) (Alopecurus myosuroides [24]): 100%
4 | Cn1c(C(F)(F)F)cc(=O)n(-c2cc(SCC(C)(C)C(=O)OCC3CCOC3)c(Cl)cc2F)c1=O (stereo not shown) [I.48-72] | 100 | 100 | 100 | 100 | 100 | 100 | 100 | 100 | 100 | 80 | 100 | 100 | 90 | 100 | 100 | 100 | 100 | 100 | 100 | 100 | Glycine max (Efficacy in %) (Glycine max; application rate 320 g/ha): 10%; Zea mays (Efficacy in %) (Zea mays; application rate 320 g/ha): 0%; Oryza sativa (Efficacy in %) (Oryza sativa; application rate 5 g/ha): 0%; Oryza sativa (Efficacy in %) (Oryza sativa; application rate 20 g/ha): 10%; Triticum aestivum (Efficacy in %) (Triticum aestivum; application rate 20 g/ha): 20%; Matricaria inodora (Efficacy in %) (Matricaria inodora [20]): 100%; Avena fatua (Efficacy in %) (Avena fatua): 80%; Lolium rigidum (Efficacy in %) (Lolium rigidum [21]): 80%; Stellaria media (Efficacy in %) (Stellaria media [22]): 100%; Amaranthus retroflexus (Efficacy in %) (Amaranthus retroflexus [23]): 100%; Alopecurus myosuroides (Efficacy in %) (Alopecurus myosuroides [24]): 90%
